{"source": "patent US4083994A", "about": "“Choleretics” (Hisamitsu Pharmaceutical Co., Inc., priority 1975, dated 1978)", "key": {"bile secretion [1]": {"test_system": "bile secretion", "assay": "Bile secretion test in rats", "assay_type": "in vivo, male Wistar rats", "details": "oral; for Bile volume secreted after administration: rat, volume in 1 h before administration = 100%; for Volume of bile secreted relative to one hour before administration: rats", "procedure": "Male Wistar rats weighing 200-210 g were fasted overnight and laparotomized under urethane anesthesia(Subcutaneous injection at a dose of 1.5 g/kg). A polyethylene tube was inserted into the common bile duct. The bile was collected for one hour from 30 minutes after the operation. Subsequently, the animals were given orally the test drugs, each 50 mg of which was suspended in 1 ml of 5% gum arabic aqueous solution. The bile was collected for 5 hours after the drug administration. The volume of the bile secreted at hourly intervals after the drug administration was expressed in %, defining the volume secreted for one hour before the drug administration as 100%, as shown in Table 1.\nAbout 500 mg of p-menth-1-ene-8,9-diol were weighed accurately, and suspended in 10 ml of 5% gum arabic aqueous solution. […] Male rats of Wistar strain weighing 200 g were fasted overnight, anesthetized by subcutanous injection of 0.3 g of urethane and laparotomized. A polyethylene tube was inserted into the common bile duct. The bile was collected for one hour from 30 minutes after the operation. […]\nAbout 500 mg of 9-acetoxy-p-menth-1-en-8-ol was weighed accurately and suspended in 10ml of 5% gum arabic aqueous solution. […] Male rats of Wistar strain weighing about 210 g were fasted overnight and anesthetized by subcutaneous injection of 0.32 g of urethane and then laparotomized. A polyethylene tube was inserted into the common bile duct, and the bile secreted through the duct was collected for one hour from 30 minutes after the operation. Subsequently, the choleretic of the present invention was administered orally in a volume of 1.05 ml (250 mg/kg)."}, "bile secretion [2]": {"test_system": "bile secretion", "assay": "Bile secretion test in dogs", "assay_type": "in vivo, male mongrel dogs", "details": "dog, into duodenum, volume in 1 h before administration = 100%", "procedure": "Male mongrel dogs weighing approximately 8 kg were anesthetized with intravenous injection of […] of pentobarbital and further with subcutaneous injection of urethane at a dose of 1.0 g/kg and laparotomized. One canula was inserted into the common bile duct and directed to the liver for collection of the bile, and the other canula was inserted into the duodenum for the drug administration. The cholecystic duct was ligated and the gallbladder bile was aspirated with an injection syringe. The operation was finished by suture of the peritoneum. The bile was collected for one hour from 30 minutes after the operation. The animals were given the test drugs, each 50 mg of which was suspended in 1 ml of 5% gum arabic aqueous solution, through the canula for the drug administration. The bile was collected at hourly intervals for 6 hours after the drug administration. Defining the volume of the bile secreted for one hour before the drug administration as 100%, the volume secreted at hourly intervals after the drug administration was expressed in %, as shown in Table 2.\nThe mean volume secreted for one hour before the drug administration was 1798 μl.\nThis suspension was used as a choleretic of the present invention. A male mongrel dog weighing 8.8 kg was fasted overnight and anesthetized by subcutaneous injection of 1.0 mg/kg of urethane and laparotomized. One canula was inserted into the common bile duct and directed to the liver for collection of the bile, and the other canula was also inserted into the duodenum for the drug administration. Subsequently, the cholecystic duct was ligated and the gallbladder bile was aspirated with an injection syringe. The operation was finished after suturing the peritoneum. The bile was collected for one hour from 30 minutes after the operation, and subsequently, 44 ml of the test drug prepared above (250 mg/kg) was given through the canula for the drug administration. The volume of the bile secreted for the first, second and third one hour after the drug administration were 2.2, 2.1 and 1.9 times larger, respectively, than that secreted for one hour before the drug administration.\nAbout 2.5 g of 9-propionyloxy-p-menth-1-en-8-ol was weighed accurately and suspended in 50 ml of 5% gum arabic aqueous solution. This suspension was used as a choleretic of the present invention. A male mongrel dog weighing 7.6 kg was fasted overnight and anesthetized by subcutaneous injection of 1.0 mg/kg of urethane and then laparotomized. One canula was inserted into the common bile duct and directed to the liver for collection of the bile, and the other canula into the duodenum for the drug administration. Subsequently, the cholecystic duct was ligated and the gallbladder bile was aspirated with an injection syringe. The operation was finished by suturing the peritoneum. The bile was collected for one hour from 30 minutes after the operation, and 50 ml (330 mg/kg) of the test drug prepared above was administered through the canula for the drug administration. The volume of the bile secreted for the first, second and third one hour after the drug administration was 3.2, 5.0 and 4.7 times larger, respectively, than that secreted for one hour before the drug administration."}, "[3]": {"assay": "Acute toxicity test in mice", "details": "mouse, in vivo, oral, parentheses: 95% confidence limit", "procedure": "(§1) The test drugs were suspended in 5% gum arabic aqueous solution to make 50 mg/ml, and given orally male mice of ddY strain weighing 18-22 g and male rats of Wistar strain weighing 95-120 g. The LD50 values were calculated from the mortality of the animals that ensued during the 72 hours following the drug administration"}, "[4]": {"assay": "Acute toxicity test in rats", "design": "species or system male rats of Wistar strain", "details": "rat, in vivo, oral, parentheses: 95% confidence limit", "procedure": "as §1"}, "[5]": {"test_system": "sleeping time induced by hexobarbital", "assay": "Effects on the sleeping time induced by hexobarbital (metabolism function of the liver)", "assay_type": "in vivo, male rats of Wistar strain", "details": "rats, 250 mg/kg oral once daily for a week; hexobarbital sodium 100 mg/kg i.p.; control 17.1 ± 0.9", "procedure": "About 500 mg of the test drugs were weighed accurately and suspended in 2 ml of 5% gum arabic aqueous solution. Ten male rats of Wistar strain were used per group and given orally the test drugs prepared above in a volume of 0.1 ml/100 g body weight (equivalent to 250 mg/kg), once daily (at 8.30-9.00 a.m.), for a week. The animals were fasted overnight after the last administration of the test drugs. Subsequently, 10% hexobarbital sodium aqueous solution was injected intraperitoneally in a volume of 0.1 ml (equivalent to 100 mg/kg) and the sleeping time was measured. The animals were regarded as sleeping when the loss of righting reflex persist for more than 30 seconds."}}}
{"smiles": "CC(=O)OCC(C)(O)C1CC=C(C)CC1", "note": "(stereo not shown) [9-Acetoxy-p-menth-1-en-8-ol, 9-acetoxy-p-menth-1-en-8-ol]", "values": [{"measurement": "Bile volume secreted after administration", "setting": "bile secretion [1]; 100 mg/kg, 0-1 hr", "value": 125, "unit": "%"}, {"measurement": "Bile volume secreted after administration", "setting": "bile secretion [1]; 100 mg/kg, 1-2 hr", "value": 109, "unit": "%"}, {"measurement": "Bile volume secreted after administration", "setting": "bile secretion [1]; 100 mg/kg, 2-3 hr", "value": 96, "unit": "%"}, {"measurement": "Bile volume secreted after administration", "setting": "bile secretion [1]; 100 mg/kg, 3-4 hr", "value": 82, "unit": "%"}, {"measurement": "Bile volume secreted after administration", "setting": "bile secretion [1]; 100 mg/kg, 4-5 hr", "value": 75, "unit": "%"}, {"measurement": "Bile volume secreted after administration", "setting": "bile secretion [1]; 310 mg/kg, 0-1 hr", "value": 196, "unit": "%"}, {"measurement": "Bile volume secreted after administration", "setting": "bile secretion [1]; 310 mg/kg, 1-2 hr", "value": 172, "unit": "%"}, {"measurement": "Bile volume secreted after administration", "setting": "bile secretion [1]; 310 mg/kg, 2-3 hr", "value": 145, "unit": "%"}, {"measurement": "Bile volume secreted after administration", "setting": "bile secretion [1]; 310 mg/kg, 3-4 hr", "value": 124, "unit": "%"}, {"measurement": "Bile volume secreted after administration", "setting": "bile secretion [1]; 310 mg/kg, 4-5 hr", "value": 114, "unit": "%"}, {"measurement": "Bile volume secreted after administration", "setting": "bile secretion [1]; 930 mg/kg, 0-1 hr", "value": 218, "unit": "%"}, {"measurement": "Bile volume secreted after administration", "setting": "bile secretion [1]; 930 mg/kg, 1-2 hr", "value": 203, "unit": "%"}, {"measurement": "Bile volume secreted after administration", "setting": "bile secretion [1]; 930 mg/kg, 2-3 hr", "value": 172, "unit": "%"}, {"measurement": "Bile volume secreted after administration", "setting": "bile secretion [1]; 930 mg/kg, 3-4 hr", "value": 154, "unit": "%"}, {"measurement": "Bile volume secreted after administration", "setting": "bile secretion [1]; 930 mg/kg, 4-5 hr", "value": 130, "unit": "%"}, {"measurement": "Volume of bile secreted relative to one hour before administration", "setting": "bile secretion [1]; 250 mg/kg, first hour", "value": 1.9, "unit": "times"}, {"measurement": "Volume of bile secreted relative to one hour before administration", "setting": "bile secretion [1]; 250 mg/kg, second hour", "value": 1.7, "unit": "times"}, {"measurement": "Volume of bile secreted relative to one hour before administration", "setting": "bile secretion [1]; 250 mg/kg, third hour", "value": 1.4, "unit": "times"}, {"measurement": "Bile volume secreted after administration", "setting": "bile secretion [2]; 310 mg/kg, 0-1 hr", "value": 395, "unit": "%"}, {"measurement": "Bile volume secreted after administration", "setting": "bile secretion [2]; 310 mg/kg, 1-2 hr", "value": 457, "unit": "%"}, {"measurement": "Bile volume secreted after administration", "setting": "bile secretion [2]; 310 mg/kg, 2-3 hr", "value": 534, "unit": "%"}, {"measurement": "Bile volume secreted after administration", "setting": "bile secretion [2]; 310 mg/kg, 3-4 hr", "value": 464, "unit": "%"}, {"measurement": "Bile volume secreted after administration", "setting": "bile secretion [2]; 310 mg/kg, 4-5 hr", "value": 277, "unit": "%"}, {"measurement": "Bile volume secreted after administration", "setting": "bile secretion [2]; 310 mg/kg, 5-6 hr", "value": 157, "unit": "%"}, {"measurement": "LD50 at 72 h", "setting": "[3]", "value": "1000 to 2000", "unit": "mg/kg"}, {"measurement": "LD50 at 72 h", "setting": "[4]", "value": 8300, "unit": "mg/kg"}, {"measurement": "Sleeping time", "setting": "[5]", "value": "18.1 ± 1.5", "unit": "min"}]}
{"smiles": "CC1=CCC(C(C)(O)CO)CC1", "note": "(stereo not shown) [p-Menth-1-ene-8,9-diol, p-menth-1-ene-8,9-diol]", "values": [{"measurement": "Bile volume secreted after administration", "setting": "bile secretion [1]; 80 mg/kg, 0-1 hr", "value": 155, "unit": "%"}, {"measurement": "Bile volume secreted after administration", "setting": "bile secretion [1]; 80 mg/kg, 1-2 hr", "value": 118, "unit": "%"}, {"measurement": "Bile volume secreted after administration", "setting": "bile secretion [1]; 80 mg/kg, 2-3 hr", "value": 101, "unit": "%"}, {"measurement": "Bile volume secreted after administration", "setting": "bile secretion [1]; 80 mg/kg, 3-4 hr", "value": 93, "unit": "%"}, {"measurement": "Bile volume secreted after administration", "setting": "bile secretion [1]; 80 mg/kg, 4-5 hr", "value": 85, "unit": "%"}, {"measurement": "Bile volume secreted after administration", "setting": "bile secretion [1]; 250 mg/kg, 0-1 hr", "value": 213, "unit": "%"}, {"measurement": "Bile volume secreted after administration", "setting": "bile secretion [1]; 250 mg/kg, 1-2 hr", "value": 170, "unit": "%"}, {"measurement": "Bile volume secreted after administration", "setting": "bile secretion [1]; 250 mg/kg, 2-3 hr", "value": 122, "unit": "%"}, {"measurement": "Bile volume secreted after administration", "setting": "bile secretion [1]; 250 mg/kg, 3-4 hr", "value": 99, "unit": "%"}, {"measurement": "Bile volume secreted after administration", "setting": "bile secretion [1]; 250 mg/kg, 4-5 hr", "value": 89, "unit": "%"}, {"measurement": "Bile volume secreted after administration", "setting": "bile secretion [1]; 750 mg/kg, 0-1 hr", "value": 218, "unit": "%"}, {"measurement": "Bile volume secreted after administration", "setting": "bile secretion [1]; 750 mg/kg, 1-2 hr", "value": 199, "unit": "%"}, {"measurement": "Bile volume secreted after administration", "setting": "bile secretion [1]; 750 mg/kg, 2-3 hr", "value": 175, "unit": "%"}, {"measurement": "Bile volume secreted after administration", "setting": "bile secretion [1]; 750 mg/kg, 3-4 hr", "value": 153, "unit": "%"}, {"measurement": "Bile volume secreted after administration", "setting": "bile secretion [1]; 750 mg/kg, 4-5 hr", "value": 139, "unit": "%"}, {"measurement": "Volume of bile secreted relative to one hour before administration", "setting": "bile secretion [1]; 250 mg/kg, first hour", "value": 2.1, "unit": "times"}, {"measurement": "Volume of bile secreted relative to one hour before administration", "setting": "bile secretion [1]; 250 mg/kg, second hour", "value": 1.7, "unit": "times"}, {"measurement": "Volume of bile secreted relative to one hour before administration", "setting": "bile secretion [1]; 250 mg/kg, third hour", "value": 1.2, "unit": "times"}, {"measurement": "Bile volume secreted after administration", "setting": "bile secretion [2]; 250 mg/kg, 0-1 hr", "value": 176, "unit": "%"}, {"measurement": "Bile volume secreted after administration", "setting": "bile secretion [2]; 250 mg/kg, 1-2 hr", "value": 168, "unit": "%"}, {"measurement": "Bile volume secreted after administration", "setting": "bile secretion [2]; 250 mg/kg, 2-3 hr", "value": 122, "unit": "%"}, {"measurement": "Bile volume secreted after administration", "setting": "bile secretion [2]; 250 mg/kg, 3-4 hr", "value": 65, "unit": "%"}, {"measurement": "Bile volume secreted after administration", "setting": "bile secretion [2]; 250 mg/kg, 4-5 hr", "value": 41, "unit": "%"}, {"measurement": "LD50 at 72 h", "setting": "[3]", "value": 1800, "unit": "mg/kg"}, {"measurement": "Sleeping time", "setting": "[5]", "value": "17.8 ± 0.3", "unit": "min"}]}
